Reference: patent US6548546B2, “HIV integrase inhibitors” (Bristol-Myers Squibb Company, priority 2000, dated 2003)

Biological target: T1, Purified recombinant HIV-1 integrase (Human immunodeficiency virus type 1 group M subtype B, UniProt P04585)
T1 construct: Purified recombinant HIV-1 integrase
Experiment: in vitro HIV-1 integrase integration (strand transfer) assay
Type: biochemical
Details: compound at 70 μM; immobilized precleaved substrate DNA, biotinylated target DNA, 1 hour at 37° C.
Method: The in vitro activities, against integrase, of compounds of the present invention, were measured in a manner which was similar to previously disclosed methods (cf. Hazuda, D. J.; Felock, P.; Witmer, M.; Wolfe, A.; Stillmock, K.; Grobler, J. A.; Espeseth, A.; Gabryelski, L.; Schleif, W.; Blau, C.; Miller, M. D. Science, 2000, 287, 646) Purified recombinant HIV-1 integrase was incubated with immobilized precleaved substrate DNA in a 96 well plate for 20 min at 37° C. After the integration complex was formed, compounds at desired concentrations were added to the wells followed by a 10 min incubation at 37° C. Biotinyted Target DNA was then added and the reaction was carried out for an additional 1 hour at 37° C. Wells were then washed thoroughly to remove any free DNA and integration activity was measured by using a commercial kit to quantitate the amount of biotinyted target DNA integrated into the substrate.

| SMILES | inhibition at 70 µM [%] |
| --- | --- |
| O=C(/C=C(\O)C(=O)O)CC(=O)c1cccc(Cl)c1 [Compound 10, 6-(3-Chloro-phenyl)-2-hydroxy-4,6-dioxo-hex-2-enoic Acid] | 88 |
| O=C(/C=C(\O)C(=O)O)CC(=O)c1ccc(-c2ccccc2)cc1 [Compound 9, 6-Biphenyl-4-yl-2-hydroxy-4,6-dioxo-hex-2-enoic Acid] | 99 |
| O=C(/C=C(\O)C(=O)O)CC(=O)c1ccccc1F [Compound 11, 6-(2-Fluoro-phenyl)-2-hydroxy-4,6,-dioxo-hex-2-enoic Acid] | 86 |
| O=C(/C=C(\O)C(=O)O)CC(=O)c1ccccc1 [Compound 13, 2-Hydroxy-4,6-dioxo-6-phenyl-hex-2-enoic Acid] | 50 |
| O=C(/C=C(\O)C(=O)O)CCc1ccccc1 [Compound 3, 2-Hydroxy-4-oxo-phenyl-hex-2-enoic Acid] | 60 |
| O=C(/C=C(\O)C(=O)O)CC(=O)c1ccccc1C(F)(F)F [Compound 5, 2-Hydroxy-4,6-dioxo-6-(2-trifluoromethyl-phenyl)-hex-2-enoic Acid] | 90 |
| O=C(/C=C(\O)C(=O)O)CC(=O)c1cc(Cl)ccc1Cl [Compound 12, 6-(2,5-Dichloro-phenyl)2-hydroxy-4,6-dioxo-hex-2-enoic Acid] | 98 |
| O=C(/C=C(\O)C(=O)O)CC(=O)c1ccccc1OCc1ccccc1 [Compound 4, 6-(2-Benzyloxy-phenyl)-2-hydroxy-4,6,-dioxo-hex-2-enoic Acid] | 97 |
| O=C(/C=C(\O)C(=O)O)CCc1ccccc1Br [Compound 2, 6-(2-Bromo-phenyl)-2-hydroxy-4-oxo-hex-2-enoic Acid] | 90 |
| COc1ccccc1C(=O)CC(=O)/C=C(\O)C(=O)O [Compound 6, 2-Hydroxy-6-(2-methoxy-phenyl)-4,6-dioxo-hex-2-enoic Acid] | 90 |
| O=C(/C=C(\O)C(=O)O)CCc1ccccc1Cl [Compound 1, 6-(2-chloro-phenyl)-2-hydroxy-4-oxo-hex-2-enoic Acid] | 70 |
| O=C(/C=C(\O)C(=O)O)CC(=O)c1ccc2ccccc2c1 [Compound 7, 2-Hydroxy-6-naphthalen-2-yl-4,6-dioxo-hex-2-enoic Acid] | 95 |
| O=C(/C=C(\O)C(=O)O)CC(=O)c1ccc(Cl)cc1Cl [Compound 8, 6-(2,4,-Dichloro-phenyl)-2-hydroxy-4,6-dioxo-hex-2-enoic Acid] | 95 |
